Measured values reported in patent US5569668A (priority 1995, dated 1996).
≈ marks a conversion by molar mass, not a printed value. Like-named read-outs stand apart in the source and are kept apart here.

Columns and labels:
Type in all cases: cell-based
[1] = test system: Bacillus subtilis; assay: MIC of nematophin on candidate microbial pathogens (Bacillus subtilis); conditions: 24 h, 35° C., Table 1, read-out: Minimum Inhibitory Concentration (MIC)
[2] = test system: Botrytis cinerea; assay: MIC of nematophin on candidate microbial pathogens (Botrytis cinerea); conditions: 48 h, 2 d, 24° C., Table 1, read-out: Minimum Inhibitory Concentration (MIC)
[3] = test system: Escherichia coli ATCC25922; assay: MIC of nematophin on candidate microbial pathogens (Escherichia coli ATCC25922); conditions: 24 h, 35° C., Table 1, read-out: Minimum Inhibitory Concentration (MIC)
[4] = test system: Phytophthora infestans; assay: microbe, parasite or virus in culture; conditions: in Secale cereale, 96 h, read-out: Minimum Inhibitory Concentration (MIC)
[5] = test system: Staphylococcus aureus ATCC29213; assay: MIC of nematophin and its derivatives on Staphylococcus aureus ATCC29213
[6] = test system: S. aureus 0012; assay: microbe, parasite or virus in culture; conditions: Staphylococcus aureus, 0012, 24 h; read-out: Minimum Inhibitory Concentration (MIC)
[7] = test system: S. aureus 0017; assay: microbe, parasite or virus in culture; conditions: Staphylococcus aureus, 0017, 24 h; read-out: Minimum Inhibitory Concentration (MIC)
[8] = test system: antibiotic resistant Staphylococcus; conditions: conclusion from Table 1 MICs
[9] = 24 h, 35° C., Table 1, read-out: Minimum Inhibitory Concentration (MIC)
[10] = Table 2, similar bioassays as for nematophin, read-out: Minimum Inhibitory Concentration (MIC) of the derivatives of nematophin

Q: How did the MIC [1] turn out when CCC(C)C(=O)C(=O)NCCc1c[nH]c2ccccc12 (racemic) [SID, 3-indoleethyl(3'-methyl-2'-oxo)pentanamide] was run?
A: 12 µg/mL

Q: What about the MIC [2] of the same compound?
A: 12 µg/mL

Q: What about the MIC [3] of the same compound?
A: > 100 µg/mL

Q: And the MIC [4]?
A: 2.5 µg/mL (≈ 9.18 µM)

Q: And the MIC [5, 9]?
A: 1.5 µg/mL

Q: What about the MIC [6] of the same compound?
A: 1.5 µg/mL (≈ 5.51 µM)

Q: What about the MIC [7] of the same compound?
A: 1.5 µg/mL (≈ 5.51 µM)

Q: What about the “antibiotic properties, in particular against antibiotic resistant Staphylococcus” value [8] of the same compound?
A: potent properties

Q: Which MIC [1] does the source give for CCC(C)C(=O)C(=O)NCCc1c[nH]c2ccccc12 (single isomer, unassigned) [NID, 3-indoleethyl 3-methyl-2-oxo-pentanamide] here?
A: 12 µg/mL

Q: What about the MIC [2] of the same compound?
A: 12 µg/mL

Q: What about the MIC [3] of the same compound?
A: > 100 µg/mL

Q: And the MIC [5, 9]?
A: 0.7 µg/mL

Q: And the MIC [6]?
A: 0.7 µg/mL (≈ 2.57 µM)

Q: And the MIC [7]?
A: 0.7 µg/mL (≈ 2.57 µM)

Q: And the “antibiotic properties, in particular against antibiotic resistant Staphylococcus” value [8]?
A: potent properties

Q: How did the MIC [5, 10] turn out when CCC(C)C(=O)C(=O)NCCc1c[nH]c2ccc(C)cc12 (stereo not shown) [5-MeIN] was run?
A: 3 µg/mL

Q: With CCC(C)C(=O)C(=O)NCCc1c[nH]c2ccc(OC)cc12 (stereo not shown) [5-MeOIN] as the compound, how does the MIC [5, 10] read?
A: 3 µg/mL

Q: CCC(C)C(=O)C(=O)NCCc1c[nH]c2cc(F)ccc12 (stereo not shown) [6-FIN] was tested. Which MIC [5, 10] did it give?
A: 0.7 µg/mL

Q: With CCC(=O)C(=O)NCCc1c[nH]c2ccccc12 [BAMIDE, 3-indoleethyl(2'-oxo)butanamide] as the compound, how does the MIC [5, 10] read?
A: 100 µg/mL

Q: CC(C)C(=O)C(=O)NCCc1c[nH]c2ccccc12 [MAMIDE] was tested. Which MIC [5, 10] did it give?
A: 3 µg/mL

Q: How did the MIC [5, 10] turn out when CCC(C)C(=O)C(=O)OCCc1c[nH]c2ccccc12 (stereo not shown) [OIN, 3-indoleethyl(3'-methyl-2'-oxo)pentanoate] was run?
A: 25 µg/mL

Q: For CC(=O)C(=O)NCCc1c[nH]c2ccccc12 [PAMIDE, 3-indoleethyl(2'-oxo)propanamide], which MIC [5, 10] is on record?
A: 100 µg/mL
